Data reported in ChEMBL document CHEMBL1153721, “Isohalitulin and haliclorensins B and C, three marine alkaloids from Haliclona tulearensis” (J Nat Prod, 2010).

Test: Toxicity against Artemia salina
Assay type: organism-based
Settings: in vivo, read-out: LD50 (the source's name)

C[C@H]1CCCCCCCN2C=[N+](CCC2)C1 [HALICLORENSIN B]
LC50: 2200 µM

C[C@H]1CCCCCCCCCCCCCNC1 [HALICLORENSIN C]
LC50: 2100 µM

C[C@H]1CCCCCCCN(CCCn2cc(-c3c(O)c(O)cc4ncccc34)c(-c3c(O)c(O)cc4ncccc34)c2)C1 [ISOHALITULIN]
LC50: 900 µM
